Measured values as given in patent US8207108B2, “Stabilizing composition” (DSM IP Assets B.V., priority 2005, dated 2012).
Values belong to the molecule of their own block, whether it stands above or below them.

What was measured:
Format in all cases: physicochemical
[1] = Solubility of stabilizer in water/ethanol mixture as found in perfumes (appearance); settings: 0.1 wt. % stabilizer in water/ethanol (96%) 53.9/46 wt. %
From the text: An often occurring problem in the stabilization of colorants, dyes, fragrances and active ingredients is the solubility respectively the crystallization of the stabilizer/stabilizing composition in the final product form.

[2] = Color stabilization in blue liquid soap, irradiated with 100 MED, visual PANTONE color; settings: irradiated 100 MED
Experimental: (§1) Basic formulation of the liquid soap:
(§2) The liquid soaps containing different colorants were irradiated with 100 MED and the color was determined visually according to Tints; PANTONE Color Tint Selector, The PANTONE Library of Color.
Blue liquid soap colored with FD&C Blue 1 W 092 (CI 42090)

[3] = Color stabilization in violet liquid soap, irradiated with 100 MED, visual PANTONE color; settings: irradiated 100 MED
Experimental: as §1, §2

[4] = Color stabilization in green liquid soap, irradiated with 100 MED, visual PANTONE color; settings: irradiated 100 MED
Experimental: as §1, §2
Green liquid soap colored with 0.9 ppm Green vent W 7003 (CI 61570)

[5] = 0.1 wt. % stabilizer, blank non irradiated 70% Tint

Appearance [1]: Precipitate
Structure (SMILES): O=C(c1ccc(O)cc1O)c1ccc(O)cc1O [Benzophenon-2]

Index (PANTONE tint) ([2]; 0.1 wt. % stabilizer, blank non irradiated 50% Tint): 50% Tint | Color (PANTONE) ([2]; FD&C Blue 1 W 092, 0.1 wt. % stabilizer, blank non irradiated Pantone 3125C): Pantone 3125C | Index (PANTONE tint) [3, 5]: 30% Tint | Color (PANTONE) ([3]; 3.1 ppm Vert Turquise W 7003 and 0.5 ppm FD&C Red 40WO93, 0.1 wt. % stabilizer, blank non irradiated Pantone 494C): Pantone 495C
Structure (SMILES): O=C(c1ccccc1)c1ccc(O)cc1O [Benzophenone-1, benzophenone-1]

Index (PANTONE tint) [4, 5]: 70% Tint | Color (PANTONE) ([4]; 0.9 ppm Green vent W 7003, 0.1 wt. % stabilizer, blank non irradiated Pantone 367C): Pantone 367C
Structure (SMILES): COc1cc(O)c(C(=O)c2ccccc2)cc1S(=O)(=O)O [Benzophenone-4, benzophenone-4]

Appearance [1]: Turbid
Structure (SMILES): COc1ccc(C(=O)c2ccccc2)c(O)c1 [Benzophenon-3]
